Results reported in publication PMC10449817, “Different solubilizing ability of cyclodextrin derivatives for cholesterol in Niemann–Pick disease type C treatment” (Clinical and Translational Medicine, 2023).

Assays:
[1] = system: Npc1‐null Chinese hamster ovary cells; test: Measurement of intracellular cholesterol in NPC model cells; type: cell-based; settings: 24 h exposure; for EC50: concentrations up to 1 mM, read-out: EC50, reduction of UC levels accumulated in Npc1‐null cells
Method: WT and Npc1‐null Chinese hamster ovary cells developed previously[34] were used. The cells were grown in a culture medium consisting of a 1:1 mixture of Dulbecco's modified Eagle's medium (DMEM) and F‐12 (Life Technologies) supplemented with 10% fetal bovine serum (FBS; Thermo Fisher Scientific, Inc.). The cells were maintained at 37°C in a saturated humidity atmosphere of 95% air and 5% CO2.
The measurement of intracellular cholesterol levels was performed in accordance with our previously developed method[35] with minor modification. Cells were pre‐incubated for 24 h and then exposed to a medium containing CD derivatives for 24 h. Thereafter, the cells were lysed, and aliquots were taken for cholesterol and protein measurements. Cholesterol was extracted from the cell lysate using chloroform, 2‐propanol and NP‐40 substitute (7:11:0.1), and the solution was then centrifuged (15 000 × g, 10 min, 4°C). The chloroform layer was evaporated, and the residues were dissolved in a solvent consisting of 2‐propanol, polyoxyethylene alkyl ether and polyoxyethylene lauryl ether (87:10:3). The dissolved samples were divided into two portions—one was incubated with esterase to measure total cholesterol (TC), and the other was incubated without esterase to measure UC. The cholesterol content was measured with a Determiner L FC kit. The EC level was calculated by deducting the UC level from the TC level. Intracellular cholesterol content was normalized by the total protein concentration as determined with a Pierce BCA Protein Assay Kit (Thermo Fisher Scientific, Inc.).

WT mice [2] = test: Auditory brainstem response (ABR) after CD derivatives in mice; type: in vivo; settings: 1 week after, 4-32 kHz
Method: (§1) Male and female Npc1 homozygous mutant (BALB/cNctr‐Npc1 ^m1N, Npc1 ^−/−) mice,[36] kindly donated by Prof. Kousaku Ohno and Dr. Katsumi Higaki, were used as a murine model of NPC. Age‐matched WT mice were used as controls. The mice were bred and housed under specific pathogen‐free conditions in the Center for Animal Resources and Development, Kumamoto University. The mice were housed in cages in a room under controlled temperature (24°C) and a 12/12‐h light/dark cycle, and provided with free access to food and water. The animal experiments were performed at the Department of Clinical Chemistry and Informatics, Graduate School of Pharmaceutical Sciences, Kumamoto University. CD derivatives were dissolved in distilled water, and the osmotic pressure was adjusted with sodium chloride to near physiological osmolality. The pH was adjusted to 7.4 using sodium hydroxide, and the solution was filtered with an Advantec DISMIC‐13CP 0.45‐μm filter (Toyo Roshi Kaisha, Ltd.). Intracerebroventricular administration was performed using stereotaxic instruments (IMPACT‐1000C and KDS 310 Plus; Muromachi Kikai Co., Ltd.) under anaesthesia (medetomidine:midazolam:butorphanol, 0.3:4.0:5.0 mg/kg, intraperitoneally). The subcutaneous injection volume was 20 mL/kg for all experimental groups. The survival times were recorded based on the day when the endpoint was reached, defined as death or the inability to consume food or drink independently.
Auditory thresholds were measured using auditory brainstem response (ABR) System 3 (Tucker‐Davis Technologies). The animals were anaesthetized by intraperitoneal administration of xylazine and ketamine‐HCl in saline. Electrodes were placed beneath the pinna of the treated ear and at the vertex just below the surface of the skin, and the ground electrode was then placed under the contralateral ear. An average of 512 sweeps was calculated at 4, 8, 12, 20 and 32 kHz. The stimulus levels near the threshold were varied in 5‐dB steps, and the threshold was defined as the lowest level at which waves in the ABR could be clearly detected by visual inspection.

α‐glucosidase = settings: cited from earlier work
[3] = UC solubility analysis; binding constants of 1:1 and 2:1 CD:UC complexes; type: physicochemical; settings: as a function of CD concentration, 37°C
Method: An excess of UC (10 mg) was added to each concentration of CD derivative in distilled water and shaken at 37°C for 3 h at 180 rpm. After equilibrium was attained (Figure S1), an aliquot was filtered through a Millex‐HP PES 0.45‐μm filter (Merck Millipore Ltd.). The filtrate was mixed and shaken for 10 min with an appropriate volume of chloroform/methanol (2:1, v/v). After centrifugation (1500 × g, 10 min, 4°C), the chloroform phase was recovered and evaporated. The residue was dissolved in a solvent consisting of 2‐propanol, polyoxyethylene alkyl ether and polyoxyethylene lauryl ether (87:10:3), and the concentration of UC was measured with a Determiner L FC kit (Kyowa Hakko Kirin Co., Ltd.) on a microplate reader (Tecan Group, Ltd.). Three replicate samples were performed. The binding constants of the 1:1 and the 2:1 CD:UC complexes were calculated according to a previously established method.[26]

[4] = system: Npc1 homozygous mutant (Npc1 ^−/−) mice; test: Intracerebroventricular administration of CD derivatives in NPC model mice; type: in vivo; settings: ICV 21.4 μmol/kg once at 4 weeks of age
Method: as §1, with “Intracerebroventricular administration was performed using stereotaxic instruments (IMPACT‐1000C and KDS 310 Plus; Muromachi Kikai Co., Ltd.) under anaesthesia (medetomidine:midazolam:butorphanol, 0.3:4.0:5.0 mg/kg, intraperitoneally). The subcutaneous injection volume was 20 mL/kg for all experimental groups.” left out
Organ samples were fixed in 4% buffered paraformaldehyde immediately after collection and then embedded in paraffin. […] Histopathological changes were photographed and analyzed by microscopy (BioRevo BZ‐9000; Keyence Co.). […]

WT mice [5] = test: Systemic biocompatibility of subcutaneous CD derivatives in mice; type: in vivo; settings: SC 5.7 mmol/kg, 24 h later
Method: as §1, with “Intracerebroventricular administration was performed using stereotaxic instruments (IMPACT‐1000C and KDS 310 Plus; Muromachi Kikai Co., Ltd.) under anaesthesia (medetomidine:midazolam:butorphanol, 0.3:4.0:5.0 mg/kg, intraperitoneally). The subcutaneous injection volume was 20 mL/kg for all experimental groups.” left out
Organ samples were fixed in 4% buffered paraformaldehyde immediately after collection and then embedded in paraffin. […] Histopathological changes were photographed and analyzed by microscopy (BioRevo BZ‐9000; Keyence Co.).

Row | Substance | EC50 [1] [µM] | ABR threshold (WT mice [2]; single SC 5.7 mmol/kg) | further results
1 | 2‐hydroxypropyl‐β‐CD [HP‐β‐CD, reference compound] | 40.3 | significantly increased | 
2 | mono‐6‐O‐α‐glucosyl‐γ‐CD [G1‐γ‐CD] | 156 |  | 
3 | mono‐6‐O‐α‐glucosyl‐β‐CD [G1‐β‐CD] | 59.6 |  | 
4 | mono‐6‐O‐α‐maltosyl‐β‐CD [G2‐β‐CD] | 56 |  | biodegradation to G1‐β‐CD in whole blood (α‐glucosidase): rapidly biodegraded
5 | 2‐hydroxypropyl‐α‐CD [HP‐α‐CD] |  | did not cause any change | UC solubilization profile in aqueous solution [3]: negligible; EC/TC ratio ([1]; Npc1‐null cells, above 0.1 mM): significantly diminished; intracellular UC levels ([1]; Npc1‐null cells, concentration‐dependent, 1 mM): significantly diminished; ABR threshold (WT mice [2]; single ICV 21.4 μmol/kg): did not cause any change
6 | 2‐hydroxybutyl‐β‐CD [HB‐β‐CD] | 11.6 |  | 
7 | mono‐6‐O‐α‐maltosyl‐γ‐CD [G2‐γ‐CD] | 182 |  | 
8 | 2‐hydroxybutyl‐γ‐CD [HB‐γ‐CD] | 11.5 |  | body weight decline [4]: mitigated; lifespan and median survival time [4]: drastically prolonged; total protein concentration in BALF (WT mice [5]): significant increases
9 | 2‐hydroxypropyl‐γ‐CD [HP‐γ‐CD] | 69.6 | only a moderate increase | 
